Row | Structure (SMILES) | melting point [°C]
1 | NS(=O)(=O)c1cccc(-c2noc(-c3cnn4c(C(F)(F)F)cc(-c5ccc(C(F)(F)F)cc5)nc34)n2)c1 [Example 2, 3-{5-[7-Trifluoromethyl-5-(4-trifluoromethyl-phenyl)-pyrazolo[1,5-a]pyrimidin-3-yl]-[1,2,4]oxadiazol-3-yl}-benzenesulfonamide] | 262
2 | NS(=O)(=O)c1ccc(-c2noc(-c3cnn4c(C(F)F)cc(-c5ccc(C(F)(F)F)cc5)nc34)n2)cc1 [Example 4, 4-{5-[7-Difluoromethyl-5-(4-trifluoromethyl-phenyl)-pyrazolo[1,5-a]pyrimidin-3-yl]-[1,2,4]oxadiazol-3-yl}-benzenesulfonamide] | 283
3 | NS(=O)(=O)c1cccc(-c2noc(-c3cnn4c(C(F)F)cc(-c5ccc(C(F)(F)F)cc5)nc34)n2)c1 [Example 5, 3-{5-[7-Difluoromethyl-5-(4-trifluoromethyl-phenyl)-pyrazolo[1,5-a]pyrimidin-3-yl]-[1,2,4]oxadiazol-3-yl}-benzenesulfonamide] | 267
4 | NS(=O)(=O)c1cccc(-c2noc(-c3cnn4c(C(F)(F)F)cc(-c5ccc(Cl)cc5)nc34)n2)c1 [Example 10, 3-{5-[5-(4-Chloro-phenyl)-7-trifluoromethyl-pyrazolo[1,5-a]pyrimidin-3-yl]-[1,2,4]oxadiazol-3-yl}-benzenesulfonamide] | 247
5 | NS(=O)(=O)c1ccc(-c2noc(-c3cnn4c(C(F)(F)F)cc(-c5ccc(Cl)cc5)nc34)n2)cc1 [Example 12, 4-{5-[5-(4-Chloro-phenyl)-7-trifluoromethyl-pyrazolo[1,5-a]pyrimidin-3-yl]-[1,2,4]oxadiazol-3-yl}-benzenesulfonamide] | 296
6 | NS(=O)(=O)c1ccc(-c2noc(-c3cnc4c(C(F)(F)F)cc(-c5ccc(C(F)(F)F)cc5)cn34)n2)cc1 [Example 13, 4-{5-[8-Trifluoromethyl-6-(4-trifluoromethyl-phenyl)-imidazo[1,2-a]pyridin-3-yl]-[1,2,4]oxadiazol-3-yl}-benzenesulfonamide] | 292
7 | NS(=O)(=O)c1ccc(-c2nc(-c3cnn4c(C(F)(F)F)cc(-c5ccc(C(F)(F)F)cc5)nc34)no2)cc1 [Example 14, 4-{3-[7-Trifluoromethyl-5-(4-trifluoromethyl-phenyl)-pyrazolo[1,5-a]pyrimidin-3-yl]-[1,2,4]oxadiazol-5-yl}-benzenesulfonamide] | 292
8 | NS(=O)(=O)c1cccc(-c2nc(-c3cnn4c(C(F)(F)F)cc(-c5ccc(C(F)(F)F)cc5)nc34)no2)c1 [Example 15, 3-{3-[7-Trifluoromethyl-5-(4-trifluoromethyl-phenyl)-pyrazolo[1,5-a]pyrimidin-3-yl]-[1,2,4]oxadiazol-5-yl}-benzenesulfonamide] | 285
9 | NS(=O)(=O)c1cccc(-c2noc(-c3cnn4c(C(F)(F)F)cc(-c5ccc(C(F)(F)F)c(OCC(F)(F)F)c5)nc34)n2)c1 [Example 16, 3-(5-{5-[3-(2,2,2-Trifluoro-ethoxy)-4-trifluoromethyl-phenyl]-7-trifluoromethyl-pyrazolo[1,5-a]pyrimidin-3-yl}-[1,2,4]oxadiazol-3-yl)-benzenesulfonamide] | 250
10 | Cc1cc(-c2cc(C(F)(F)F)n3ncc(-c4nc(-c5cccc(S(N)(=O)=O)c5)no4)c3n2)ccc1C(F)(F)F [Example 17, 3-{5-[5-(3-Methyl-4-trifluoromethyl-phenyl)-7-trifluoromethyl-pyrazolo[1,5-a]pyrimidin-3-yl]-[1,2,4]oxadiazol-3-yl}-benzenesulfonamide] | 270
11 | Cc1cc(-c2cc(C(F)(F)F)n3ncc(-c4nc(-c5ccc(S(N)(=O)=O)cc5)no4)c3n2)ccc1C(F)(F)F [Example 18, 4-{5-[5-(3-Methyl-4-trifluoromethyl-phenyl)-7-trifluoromethyl-pyrazolo[1,5-a]pyrimidin-3-yl]-[1,2,4]oxadiazol-3-yl}-benzenesulfonamide] | 273
12 | NS(=O)(=O)c1cccc(-c2noc(-c3cnn4c(C(F)F)cc(-c5ccc(Cl)cc5)nc34)n2)c1 [Example 19, 3-{5-[5-(4-Chloro-phenyl)-7-difluoromethyl-pyrazolo[1,5-a]pyrimidin-3-yl]-[1,2,4]oxadiazol-3-yl}-benzenesulfonamide] | 231
13 | Cc1cc(-c2cc(C(F)(F)F)n3ncc(-c4nc(-c5ccc(S(N)(=O)=O)s5)no4)c3n2)ccc1C(F)(F)F [Example 22, 5-{5-[5-(3-Methyl-4-trifluoromethyl-phenyl)-7-trifluoromethyl-pyrazolo[1,5-a]pyrimidin-3-yl]-[1,2,4]oxadiazol-3-yl}-thiophene-2-sulfonic acid amide] | 324
14 | NS(=O)(=O)c1ccc(-c2noc(-c3cnn4c(C(F)(F)F)cc(-c5ccc(C(F)(F)F)c(OCC(F)(F)F)c5)nc34)n2)s1 [Example 23, 5-(5-{5-[3-(2,2,2-Trifluoro-ethoxy)-4-trifluoromethyl-phenyl]-7-trifluoromethyl-pyrazolo[1,5-a]pyrimidin-3-yl}-[1,2,4]oxadiazol-3-yl)-thiophene-2-sulfonic acid amide] | 255
15 | NS(=O)(=O)c1ccc(-c2noc(-c3cnn4c(C(F)(F)F)cc(-c5cccc(C(F)(F)F)c5)nc34)n2)cc1 [Example 25, 4-{5-[7-Trifluoromethyl-5-(3-trifluoromethyl-phenyl)-pyrazolo[1,5-a]pyrimidin-3-yl]-[1,2,4]oxadiazol-3-yl}-benzenesulfonamide] | 300
16 | NS(=O)(=O)c1cccc(-c2noc(-c3cnn4c(C(F)(F)F)cc(-c5cccc(C(F)(F)F)c5)nc34)n2)c1 [Example 26, 3-{5-[7-Trifluoromethyl-5-(3-trifluoromethyl-phenyl)-pyrazolo[1,5-a]pyrimidin-3-yl]-[1,2,4]oxadiazol-3-yl}-benzenesulfonamide] | 251
17 | NS(=O)(=O)c1ccc(-c2noc(-c3cnn4c(C(F)(F)F)cc(-c5ccc(Cl)cc5)nc34)n2)s1 [Example 28, 5-{5-[5-(4-Chloro-phenyl)-7-trifluoromethyl-pyrazolo[1,5-a]pyrimidin-3-yl]-[1,2,4]oxadiazol-3-yl}-thiophene-2-sulfonic acid amide] | 294
18 | NS(=O)(=O)c1ccc(-c2noc(-c3cnn4c(C(F)F)cc(-c5ccc(Cl)cc5)nc34)n2)s1 [Example 29, 5-{5-[5-(4-Chloro-phenyl)-7-difluoromethyl-pyrazolo[1,5-a]pyrimidin-3-yl]-[1,2,4]oxadiazol-3-yl}-thiophene-2-sulfonic acid amide] | 259
19 | Cc1cc(-c2ccc(Cl)cc2)nc2c(-c3nc(-c4ccc(S(N)(=O)=O)s4)no3)cnn12 [Example 32, 5-{5-[5-(4-Chloro-phenyl)-7-methyl-pyrazolo[1,5-a]pyrimidin-3-yl]-[1,2,4]oxadiazol-3-yl}-thiophene-2-sulfonic acid amide] | 253
20 | NS(=O)(=O)c1ccc(-c2nc(-c3cnn4c(C(F)(F)F)cc(-c5ccc(C(F)(F)F)cc5)nc34)no2)s1 [Example 33, 5-{3-[7-Trifluoromethyl-5-(4-trifluoromethyl-phenyl)-pyrazolo[1,5-a]pyrimidin-3-yl]-[1,2,4]oxadiazol-5-yl}-thiophene-2-sulfonic acid amide] | 272
21 | Nc1ccc(-c2noc(-c3cnn4c(C(F)(F)F)cc(-c5ccc(C(F)(F)F)cc5)nc34)n2)cn1 [Example 35, 5-{5-[7-Trifluoromethyl-5-(4-trifluoromethyl-phenyl)-pyrazolo[1,5-a]pyrimidin-3-yl]-[1,2,4]oxadiazol-3-yl}-pyridin-2-ylamine] | 257
22 | Nc1ccc(-c2noc(-c3cnn4c(C(F)F)cc(-c5ccc(C(F)(F)F)cc5)nc34)n2)cn1 [Example 36, 5-{5-[7-Difluoromethyl-5-(4-trifluoromethyl-phenyl)-pyrazolo[1,5-a]pyrimidin-3-yl]-[1,2,4]oxadiazol-3-yl}-pyridin-2-ylamine] | 242
23 | Cc1cc(-c2cc(C(F)(F)F)n3ncc(-c4nc(-c5ccc(N)nc5)no4)c3n2)ccc1C(F)(F)F [Example 37, 5-{5-[5-(3-Methyl-4-trifluoromethyl-phenyl)-7-trifluoromethyl-pyrazolo[1,5-a]pyrimidin-3-yl]-[1,2,4]oxadiazol-3-yl}-pyridin-2-ylamine] | 220
24 | Cc1cc(-c2ccc(Cl)cc2)nc2c(-c3nc(-c4cccc(S(N)(=O)=O)c4)no3)cnn12 [Example 38, 3-{5-[5-(4-Chloro-phenyl)-7-methyl-pyrazolo[1,5-a]pyrimidin-3-yl]-[1,2,4]oxadiazol-3-yl}-benzenesulfonamide] | 275
25 | Cc1cc(-c2ccc(Cl)cc2)cn2c(-c3nc(-c4ccc(S(N)(=O)=O)cc4)no3)cnc12 [Example 39, 4-{5-[6-(4-Chloro-phenyl)-8-methyl-imidazo[1,2-a]pyridin-3-yl]-[1,2,4]oxadiazol-3-yl}-benzenesulfonamide] | 311
26 | Cc1cc(-c2ccc(Cl)cc2)cn2c(-c3nc(-c4cccc(S(N)(=O)=O)c4)no3)cnc12 [Example 40, 3-{5-[6-(4-Chloro-phenyl)-8-methyl-imidazo[1,2-a]pyridin-3-yl]-[1,2,4]oxadiazol-3-yl}-benzenesulfonamide] | 301
27 | Cc1cc(-c2ccc(C(F)(F)F)cc2)cn2c(-c3nc(-c4ccc(S(N)(=O)=O)cc4)no3)cnc12 [Example 43, 4-{5-[8-Methyl-6-(4-trifluoromethyl-phenyl)-imidazo[1,2-a]pyridin-3-yl]-[1,2,4]oxadiazol-3-yl}-benzenesulfonamide] | 290
28 | Cc1cc(-c2ccc(C(F)(F)F)cc2)cn2c(-c3nc(-c4cccc(S(N)(=O)=O)c4)no3)cnc12 [Example 44, 3-{5-[8-Methyl-6-(4-trifluoromethyl-phenyl)-imidazo[1,2-a]pyridin-3-yl]-[1,2,4]oxadiazol-3-yl}-benzenesulfonamide] | 326
29 | Cc1cc(-c2ccc(C(F)(F)F)cc2)cn2c(-c3nc(-c4ccc(S(N)(=O)=O)s4)no3)cnc12 [Example 45, 5-{5-[8-Methyl-6-(4-trifluoromethyl-phenyl)-imidazo[1,2-a]pyridin-3-yl]-[1,2,4]oxadiazol-3-yl}-thiophene-2-sulfonic acid amide] | 285

Source: patent publication US8349844B2, “Substituted pyrazolo [1,5-A] pyrimidines as metabotropic glutamate antagonists” (Hoffmann-La Roche Inc., priority 2005, dated 2013)
